System: human myeloma cell line MM.1S
Assay: SILAC acetylated-lysine peptide profiling, HDAC inhibitor vs DMSO (light/heavy ratio)
Assay type: cell-based
From the text: An embodiment of the invention comprises utilizing the SILAC method in order to quantitate changes in protein expression between two or more populations of cells. The SILAC method is a technique based on mass spectrometry that detects differences in protein abundance among samples using non-radioactive isotopic labeling. The SILAC method is known in the art, and described in detail in Ong et al., “Stable Isotope Labeling by Amino Acids in Cell Culture, SILAC, as a Simple and Accurate Approach to Expression Proteomics”, Molecular & Cellular Proteomics, vol. 1, pp. 376-386 (2002), which is incorporated herein by reference in its entirety.
Briefly, the SILAC method involves growing two populations of cells in cell culture. The first population of cells is grown in growth media containing normal amino acids (“normal media”). The second population of cells is grown in media lacking a standard essential amino acid (such as lysine), but is then supplemented with a non-radioactive, isotopically labeled form of that essential amino acid (such as lysine labeled with ^13C atoms, rather than normal ^12C atoms), which is called “heavy media”. When the two populations of cells are each growing in the medium, they incorporate the amino acids into all of their proteins. The growth of cells maintained in the heavy media is no different from that in normal media. All peptides containing the heavy amino acids are heavier than their normal counterparts. The cells from each of the two populations of cells are lysed. The lysates from each of the two cell populations are then combined. The combined cell lysates are then analyzed by mass spectrometry. Pairs of chemically identical peptides of different stable isotope composition can be differentiated in a mass spectrometer due to their difference in mass. The ratio of peak intensities in the mass spectrum for such peptide pairs reflects the abundance ratio for the two proteins.
This example describes SILAC studies that were performed to compare the effects of three different HDAC inhibitors (Compound A, Compound B, and tubastatin A) to a control on a human multiple myeloma cell line. The HDAC inhibitors were also compared amongst themselves to determine differences in their effects.
A human myeloma cell line MM.1S was grown using either ^12C (light) or ^13C (heavy) lysine containing culture medium. The “heavy” cells were treated with DMSO as the control, and the “light” cells were treated with a single HDAC inhibitor at 37° C. for 6 hours. The heavy and light cells were lysed, and the lysates were mixed in 1:1 ratio and digested with the protease trypsin. The acetylated lysine containing peptides (due to the action of the HDAC inhibitor) in the digested peptide pool were captured by a non-specific anti-acetylated lysine antibody cocktail (the antibodies identify both light and heavy acetylated peptides), and subjected to mass spectrometry analysis in order to identify thousands of individual peptides.
Thousands of peptides were identified in pairs (^12C and ^13C) due to their known mass differences. The amino acid sequence and quantitative ratio (Light/Heavy) of a given peptide in two differentially treated cell lysates were then determined and annotated with their possible protein (gene) sources.
As stated above, three HDAC inhibitors (Compound A, Compound B, and Tubastatin A) were used. Thus, the SILAC method was performed three times, with a different HDAC inhibitor compared to a control each time. Accordingly, there are three pairs of quantitative data in the table below, i.e., Compound A:DMSO, Compound B:DMSO, and Tubastatin A:DMSO. A cut-off of 1.30 fold of change (increase or decrease) was then used to determine “changed” or “+” in the table, and any peptides with a fold of change less than 1.3 fold were determined to be “unchanged” or “0” in the table. Those peptides that were not identified were marked as “NA” in the table. […]

Structure (SMILES): O=C(NO)c1cnc(NC2(c3cccc(F)c3)CCCCC2)nc1 [Compound B, 2-((1-(3-fluorophenyl)cyclohexyl)amino)-N-hydroxypyrimidine-5-carboxamide]
- L/H ratio of acetylated peptide ([…](ac)HLSASQK (SEQ ID NO: 381), Cytochrome c oxidase subunit 4 isoform 1 mitochondrial [53], COX4I1): −0.63 log 2
- light to heavy ratio (L/H ratio) of acetylated peptide, log 2 scale ([…](ac)IFK (SEQ ID NO: 157), cDNA FLJ59630 highly similar to Growth hormone-inducible transmembrane protein [76], GHITM): 0.00
- light to heavy ratio (L/H ratio) of acetylated peptide, log 2 scale ([…](ac)IVIQK (SEQ ID NO: 165), Isoform A1-B of Heterogeneous nuclear ribonucleoprotein A1 [161], HNRNPA1): 0.00
- light to heavy ratio (L/H ratio) of acetylated peptide, log 2 scale ([…](ac)K (SEQ ID NO: 242), Vimentin [235], VIM): 0.00
- L/H ratio of acetylated peptide ([…](ac)K (SEQ ID NO: 427), Profilin-1 [126], PFN1): 0.58 log 2
- light to heavy ratio (L/H ratio) of acetylated peptide, log 2 scale ([…](ac)LFR (SEQ ID NO: 136), B-cell receptor-associated protein 31 [95], BCAP31): 0.00
- L/H ratio of acetylated peptide ([…](ac)LHIVK (SEQ ID NO: 378), Chloride intracellular channel protein 4 [194], CLIC4): 0.51 log 2
- light to heavy ratio (L/H ratio) of acetylated peptide, log 2 scale ([…](ac)LLPHIR (SEQ ID NO: 208), 60S acidic ribosomal protein P0 [77], RPLP0): 0.00
- L/H ratio of acetylated peptide ([…](ac)VNSK (SEQ ID NO: 430), Isoform 1 of Inorganic pyrophosphatase 2 mitochondrial [69], PPA2): 0.91 log 2
- L/H ratio of acetylated peptide ([…](ac)WK (SEQ ID NO: 453), Lupus La protein [328], SSB): 0.57 log 2
- L/H ratio of acetylated peptide ([…](ac)YLNFVK (SEQ ID NO: 405), Endoplasmin [428], HSP90B1): 0.77 log 2
- L/H ratio of acetylated peptide ([…](ac)YQEALAK (SEQ ID NO: 450), Superoxide dismutase [Mn] mitochondrial [68], SOD2): −0.67 log 2
- light to heavy ratio (L/H ratio) of acetylated peptide, log 2 scale ([…](ac)[…] (SEQ ID NO: 132), ATP synthase subunit b mitochondrial [221], ATP5F1): 0.00
- light to heavy ratio (L/H ratio) of acetylated peptide, log 2 scale ([…](ac)[…] (SEQ ID NO: 139), cDNA FLJ55574 highly similar to Calnexin [217], CANX): 0.00
- light to heavy ratio (L/H ratio) of acetylated peptide, log 2 scale ([…](ac)[…] (SEQ ID NO: 145), Isoform 1 of Cellular nucleic acid-binding protein [118], CNBP): 0.00
- L/H ratio of acetylated peptide ([…](ac)[…] (SEQ ID NO: 372), Calreticulin [98], CALR): −0.43 log 2
- L/H ratio of acetylated peptide ([…](ac)[…] (SEQ ID NO: 387), D-dopachrome decarboxylase [87], DDT): −0.44 log 2
- L/H ratio of acetylated peptide ([…](ac)[…] (SEQ ID NO: 399), Guanine nucleotide-binding protein subunit beta-2-like 1 [139], GNB2L1): 0.54 log 2
- L/H ratio of acetylated peptide ([…](ac)[…] (SEQ ID NO: 408), Isoform 1 of Isocitrate dehydro-genase [NAD] subunit alpha mitochondrial [77], IDH3A): −0.44 log 2
- L/H ratio of acetylated peptide ([…](ac)[…] (SEQ ID NO: 455), Isoform 1 of Translocon-associated protein subunit alpha [102], SSR1): −0.88 log 2
- L/H ratio of acetylated peptide ([…](ac)[…] (SEQ ID NO: 466), Voltage-dependent anion-selective channel protein 1 [266], VDAC1): −0.66 log 2
- L/H ratio of acetylated peptide ([…](ac)[…] (SEQ ID NO: 469), Isoform 1 of Voltage-dependent anion-selective channel protein 3 [266], VDAC3): −0.71 log 2
- light to heavy ratio (L/H ratio) of acetylated peptide YDGK(ac)WEVEEMK (SEQ ID NO: 274) (cDNA FLJ55574 highly similar to Calnexin [138], CANX, drug:DMSO): 0.00 log 2
- light to heavy ratio (L/H ratio) of acetylated peptide LNK(ac)PFLFDTK (SEQ ID NO: 327) (cDNA FLJ55574 highly similar to Calnexin [172], CANX, drug:DMSO): 0.43 log 2
- light to heavy ratio (L/H ratio) of acetylated peptide NFK(ac)SISK (SEQ ID NO: 356) (cDNA FLJ56425 highly similar to Very-long-chain specific acyl-CoAdehydrogenase mitochondrial [681], ACADVL, drug:DMSO): 0.44 log 2
- light to heavy ratio (L/H ratio) of acetylated peptide LPSSTK(ac)SGWPR (SEQ ID NO: 500) (cDNA FLJ75110 highly similar to Homo sapiens PHD finger protein 15 (PHF15) mRNA [38], gene PHF15, inhibitor:DMSO): 0.00 log 2
- light to heavy ratio (L/H ratio) of acetylated peptide IINEVSK(ac)[…] (SEQ ID NO: 341) (cDNA FLJ77177 highly similar to Homo sapiens arginine-rich mutated in early stage tumors (ARMET) mRNA [97], MANF, drug:DMSO): −0.58 log 2
- light to heavy ratio (L/H ratio) of acetylated peptide TNVPVK(ac)LFAR (SEQ ID NO: 348) (cDNA FLJ77422 highly similar to Homo sapiens RNA binding protein autoantigenic (hnRNP-associated with lethal yellow homolog (mouse)) transcript variant 1 mRNA (Fragment) [165], RALY, drug:DMSO): 0.39 log 2
- light to heavy ratio (L/H ratio) of acetylated peptide EIAQEFK(ac)TDLR (SEQ ID NO: 337) (histone cluster 2 H3 pseudogene 2 [80], HIST2H3PS2, drug:DMSO): −0.49 log 2
- light to heavy ratio (L/H ratio) of acetylated peptide SK(ac)SDPIMLLK (SEQ ID NO: 255) (pyruvate dehydrogenase E1 component subunit alpha somatic form mitochondrial isoform 2 precursor [351], PDHA1, drug:DMSO): 0.00 log 2
- light to heavy ratio (L/H ratio) of acetylated peptide VTNLLMLK(ac)GK (SEQ ID NO: 350) (regulator of differentiation 1 isoform 2 [64], ROD1, drug:DMSO): 0.83 log 2
- light to heavy ratio (L/H ratio) of acetylated peptide LTSLNVK(ac)YNNDK (SEQ ID NO: 590) (regulator of differentiation 1 isoform 2 [236], gene ROD1, inhibitor:DMSO): 0.00 log 2
- light to heavy ratio (L/H ratio) of acetylated peptide GWLK(ac)[…] (SEQ ID NO: 278) (triosephosphate isomerase isoform 2 [231], TPI1, TPI1P1, drug:DMSO): 0.00 log 2

Source: US20140357512A1, “HISTONE DEACETYLASE (HDAC) BIOMARKERS IN MULTIPLE MYELOMA” (priority 2013, published 2014)
